test system: c-Myc; experiment: c-Myc ELISA assay protocol in 22RV-1 cells; format: cell-based, human; settings: 18 h, read-out: cMyc IC50
Method: In each bioassay, cells were treated with varying amounts of compounds encompassed by the present disclosure, as shown in Table 1. The degradation of the following proteins were evaluated in this study: TANK-binding kinase 1 (TBK1), estrogen receptor α (ERα), bromodomain-containing protein 4 (BRD4), androgen receptor (AR), and c-Myc.
5. c-Myc ELISA Assay Protocol
22RV-1 cells were purchased from ATCC and cultured in RPMI+10% FBS media. Cells were harvested using trypsin (Gibco #25200-114), counted and seeded at 30,000 cells/well at a volume of 75 μL/well in RPMI +10% FBS media in 96-well plates. The cells were dosed with compounds diluted in 0.1% DMSO, incubated for 18 h then washed and lysed in 50 uL RIPA buffer (50 mM Tris pH8, 150 mM NaCl, 1% Tx-100, 0.1% SDS, 0.5% sodium deoxycholate) supplemented with protease and phosphatase inhibitors. The lysates were clarified at 4000 rpm at 4° C. for 10 minutes then aliquots were added into a 96-well ELISA plate of Novex Human c-myc ELISA kit from Life Technologies Catalog #KHO2041. 50 ul of c-Myc Detection antibody was added into every well, the plates incubated at room temperature for 3 hrs, then washed with ELISA wash buffer. 100 uL of the anti-rabbit IgG-HRP secondary antibody was added to each well and incubated at room temperature for 30 minutes. The plates were washed with ELISA wash buffer, 100 μL TMB added to each well, and then monitored every 5 minutes for a color change. 100 μL of stop solution is added and the plates read at 450 nm.

Row | IC50 | Compound
1 | < 50 nM | Cc1sc2c(c1C)C(c1ccc(Cl)cc1)=N[C@@H](CC(=O)NCCCOCCCNc1cccc3c1C(=O)N(C1CCC(=O)NC1=O)C3=O)c1nnc(C)n1-2 (stereo partly drawn) [Compound 24, 2-((9S)-7-(4-chlorophenyl)-4,5,13-trimethyl-3-thia-1,8,11,12-tetraazatricyclo [8.3.0.02,6]trideca-2(6),4,7,10, 12-pentaen-9-yl)-N-(3-(3-((2-(2,6-dioxopiperidin-3-yl)-1,3-dioxo-2,3-dihydro-1H-isoindol-4-yl)amino)propoxy)propyl)acetamide]
2 | < 50 nM | Cc1sc2c(c1C)C(c1ccc(Cl)cc1)=N[C@@H](CC(=O)NCCOCCNc1cccc3c1C(=O)N(C1CCC(=O)NC1=O)C3=O)c1nnc(C)n1-2 (stereo partly drawn) [Compound 27, 2-((9S)-7-(4-chlorophenyl)-4,5,13-trimethyl-3-thia-1,8,11,12-tetraazatricyclo [8.3.0.02,6]trideca-2(6),4,7,10,12-pentaen-9-yl)-N-(2-(2-((2-(2,6-dioxopiperidin-3-yl)-1,3-dioxo-2,3-dihydro-1H-isoindol-4-yl)amino)ethoxy)ethyl)acetamide]
3 | < 50 nM | Cc1sc2c(c1C)C(c1ccc(Cl)cc1)=N[C@@H](CC(=O)N[C@H](C)c1ccc(OCCCCNc3cccc4c3C(=O)N(C3CCC(=O)NC3=O)C4=O)cc1)c1nnc(C)n1-2 (stereo partly shown) [Compound 28]
4 | < 50 nM | Cc1sc2c(c1C)C(c1ccc(Cl)cc1)=N[C@@H](CC(=O)N[C@H](C)c1ccc(OCCOCCNc3cccc4c3C(=O)N(C3CCC(=O)NC3=O)C4=O)cc1)c1nnc(C)n1-2 (stereo partly drawn) [Compound 29, 2-((9S)-7-(4-chlorophenyl)-4,5,13-trimethyl-3-thia-1,8,11,12-tetraazatricyclo [8.3.0.02,6]trideca-2(6),4,7,10, 12-pentaen-9-yl) N-((1R)-1-(4-(2-(2-((2-(2,6-dioxopiperidin-3-yl)-1,3-dioxo-2,3-dihydro-1H-isoindol-4-yl)amino)ethoxy)ethoxy)phenyl)ethyl) acetamide]
5 | < 50 nM | Cc1sc2c(c1C)C(c1ccc(Cl)cc1)=N[C@@H](CC(=O)N[C@H](C)c1ccc(OCCCNc3cccc4c3C(=O)N(C3CCC(=O)NC3=O)C4=O)cc1)c1nnc(C)n1-2 (stereo partly drawn) [Compound 30, 2-((9S)-7-(4-chlorophenyl)-4,5,13-trimethyl-3-thia-1,8,11,12-tetraazatricyclo [8.3.0.02,6]trideca-2(6),4,7,10, 12-pentaen-9-yl)-N-((1R)-1-(4-(3-((2-(2,6-dioxopiperidin-3-yl)-1,3-dioxo-2,3-dihydro-1H-isoindol-4-yl)amino)propoxy)phenyl)ethyl) acetamide]
6 | < 50 nM | Cc1sc2c(c1C)C(c1ccc(Cl)cc1)=N[C@@H](CC(=O)Nc1cnc(-c3ccc(OCCCNc4cccc5c4C(=O)N(C4CCC(=O)NC4=O)C5=O)cc3)nc1)c1nnc(C)n1-2 (stereo partly drawn) [Compound 31, 2-((9S)-7-(4-chlorophenyl)-4,5,13-trimethyl-3-thia-1,8,11,12-tetraazatricyclo [8.3.0.02,6]trideca-2(6),4,7,10, 12-pentaen-9-yl)-N-(2-(4-(3-((2-(2,6-dioxopiperidin-3-yl)-1,3-dioxo-2,3-dihydro-1H-isoindol-4-yl)amino)propoxy)phenyl)pyrimidin-5-yl)acetamide]
7 | < 50 nM | Cc1sc2c(c1C)C(c1ccc(Cl)cc1)=N[C@@H](CC(=O)Nc1ccc(OCCCOCCNc3cccc4c3C(=O)N(C3CCC(=O)NC3=O)C4=O)c(F)c1)c1nnc(C)n1-2 (stereo partly drawn) [Compound 32, 2-((9S)-7-(4-chlorophenyl)-4,5,13-trimethyl-3-thia-1,8,11,12-tetraazatricyclo [8.3.0.02,6]trideca-2(6),4,7,10, 12-pentaen-9-yl)-N-(4-(3-(2-((2-(2,6-dioxopiperidin-3-yl)-1,3-dioxo-2,3-dihydro-1H-isoindol-4-yl)amino)ethoxy)propoxy)-3-fluorophenyl) acetamide]
8 | < 50 nM | Cc1sc2c(c1C)C(c1ccc(Cl)cc1)=N[C@H](CC(=O)Nc1ccc(OCCOCCOCCOCCNc3cccc4c3CN(C3CCC(=O)NC3=O)C4=O)cc1)c1nnc(C)n1-2 (stereo partly drawn) [Compound 35, 2-((9R)-7-(4-chlorophenyl)-4,5,13-trimethyl-3-thia-1,8,11,12-tetraazatricyclo [8.3.0.02,6]trideca-2(6),4,7,10, 12-pentaen-9-yl)-N-(4-((1-(2-(2,6-dioxopiperidin-3-yl)-1-oxo-2,3-dihydro-1H-isoindol-4-yl)-4,7,10-trioxa-1-azadodecan-12-yl)oxy)phenyl) acetamide]
9 | < 50 nM | Cc1sc2c(c1C)C(c1ccc(Cl)cc1)=N[C@@H](CC(=O)N[C@@H](C)c1ccc(-c3ncc(OCCOCCNc4cccc5c4C(=O)N(C4CCC(=O)NC4=O)C5=O)cn3)cc1)c1nnc(C)n1-2 (stereo partly drawn) [Compound 36, 2-[(9S)-7-(4-chlorophenyl)-4,5,13-trimethyl-3-thia-1,8,11,12-tetraazatricyclo [8.3.0.0^2,^6]trideca-2(6),4,7,10,12-pentaen-9-yl]-N-[(1S)-1-(4-{5-[2-(2-{[2-(2,6-dioxopiperidin-3-yl)-1,3-dioxo-2,3-dihydro-1H-isoindol-4-yl]amino}ethoxy)ethoxy]pyrimidin-2-yl}phenyl)ethyl] acetamide]

Row | Compound | IC50
10 | Cc1sc2c(c1C)C(c1ccc(Cl)cc1)=N[C@@H](CC(=O)N[C@@H](C)c1ccc(OCCCCNc3cccc4c3C(=O)N(C3CCC(=O)NC3=O)C4=O)cc1)c1nnc(C)n1-2 (stereo partly drawn) [Compound 23, 2-((9S)-7-(4-chlorophenyl)-4,5,13-trimethyl-3-thia-1,8,11,12-tetraazatricyclo [8.3.0.02,6]trideca-2(6),4,7,10, 12-pentaen-9-yl)-N-((1S)-1-(4-(4-((2-(2,6-dioxopiperidin-3-yl)-1,3-dioxo-2,3-dihydro-1H-isoindol-4-yl)amino)butoxy)phenyl)ethyl) acetamide] | > 50 nM
11 | Cc1sc2c(c1C)C(c1ccc(Cl)cc1)=N[C@@H](CC(=O)NCCCNc1cccc3c1C(=O)N(C1CCC(=O)NC1=O)C3=O)c1nnc(C)n1-2 (stereo partly drawn) [Compound 25, 2-((9S)-7-(4-chlorophenyl)-4,5,13-trimethyl-3-thia-1,8,11,12-tetraazatricyclo [8.3.0.02,6]trideca-2(6),4,7,10,12-pentaen-9-yl)-N-(3-((2-(2,6-dioxopiperidin-3-yl)-1,3-dioxo-2,3-dihydro-1H-isoindol-4-yl)amino)propyl) acetamide] | > 50 nM
12 | Cc1sc2c(c1C)C(c1ccc(Cl)cc1)=N[C@@H](CC(=O)Nc1ccc(OCCCCOCCCNc3cccc4c3C(=O)N(C3CCC(=O)NC3=O)C4=O)cc1F)c1nnc(C)n1-2 (stereo partly drawn) [Compound 33, 2-((9S)-7-(4-chlorophenyl)-4,5,13-trimethyl-3-thia-1,8,11,12-tetraazatricyclo [8.3.0.02,6]trideca-2(6),4,7,10, 12-pentaen-9-yl)-n-(4-(4-(3-((2-(2,6-dioxopiperidin-3-yl)-1,3-dioxo-2,3-dihydro-1h-isoindol-4-yl)amino)propoxy)butoxy)-2-fluorophenyl) acetamide] | < 50 nM
13 | Cc1sc2c(c1C)C(c1ccc(Cl)cc1)=N[C@@H](CC(=O)Nc1ccc(OCCCCOCCCNc3cccc4c3C(=O)N(C3CCC(=O)NC3=O)C4=O)c(F)c1)c1nnc(C)n1-2 (stereo partly drawn) [Compound 34, 2-((9S)-7-(4-chlorophenyl)-4,5,13-trimethyl-3-thia-1,8,11,12-tetraazatricyclo [8.3.0.02,6]trideca-2(6),4,7,10, 12-pentaen-9-yl)-N-(4-(4-(3-((2-(2,6-dioxopiperidin-3-yl)-1,3-dioxo-2,3-dihydro-1H-isoindol-4-yl)amino)propoxy)butoxy)-3-fluorphenyl) acetamide] | < 50 nM

Source: US11834460B2, “Imide-based modulators of proteolysis and associated methods of use” (YALE UNIVERSITY, priority 2018, dated 2023)
